The series has as its target CD137 (Homo sapiens, UniProt Q07011). Description: CD137 reporter assay (Promega, Jurkat cells) in co-culture with EphA2-expressing tumor cells (A549, PC3, HT29). Format: cell-based. Further details: host or cells: Jurkat reporter cells. The conditions noted are these: for Emax (fold induction over background) / fold induction: CD137 reporter coculture assay with PC3 tumor cells; for fold induction: read-out: Emax (fold induction over background); for EC50: EC50, CD137 reporter coculture assay with PC3 tumor cells; for Fold Improvement over BCY9173, EC50 (nM) / Fold Improvement over Emax: co-culture with PC3; for Fold Improvement over Emax: versus BCY9173. The protocol:
Culture medium, referred to as R1 media, is prepared by adding 1% FBS to RPMI-1640 (component of Promega kit CS196005). Serial dilutions of test articles in R1 are prepared in a sterile 96 well-plate. Add 25 μL per well of test articles or R1 (as a background control) to designated wells in a white cell culture plate. Tumor cells* are harvested and resuspended at a concentration of 400,000 cells/mL in R1 media. Twenty five (25) μL/well of tumor cells are added to the white cell culture plate. Jurkat cells (Promega kit CS196005, 0.5 mL) are thawed in the water bath and then added to 5 ml pre-warmed R1 media. Twenty five (25) μL/well of Jurkat cells are then added to the white cell culture plate. Incubate the cells and test articles for 6 h at 37° C., 5% CO2. At the end of 6 h, add 75 μL/well Bio-Glo™ reagent (Promega) and incubate for 10 min before reading luminescence in a plate reader (Clariostar, BMG). The fold change relative to cells alone (Jurkat cells+Cell line used in co-culture) is calculated and plotted in GraphPad Prism as log(agonist) vs response to determine EC50 (nM) and Fold Induction over background (Max).
The tumor cell types used in co-culture for EphA2 are A549, PC3 and HT29. The tumor cell type used in co-culture for PD-L1 is RKO.
In general terms: Reporter assays use an easily measured gene product as a stand-in for the process of interest.

Starred links: 1 amine or outer side, 2 acyl side, 3 side chain; linkers in the order of their positions; H or OH if unused. Positions of bridges follow the written chain, without caps; N, C: chain ends. Non-standard residues stand in square brackets, D forms with d. Primed or numbered codes have the meaning given here. Chains are numbered I, II in the order given. No end group written: not given here. *: point of attachment. X1 = O=C(CCOCCOCCOCCN(CCOCCOCCOCCn1cc(CCC(=O)[*:2])nn1)CCOCCOCCOCCn1cc(CCC(=O)[*:3])nn1)[*:1]; X3 = O=C(CCc1cn(CCOCCOCCOCCN(CCOCCOCCOCCC(=O)[*:3])CCOCCOCCOCCn2cc(CCC(=O)[*:2])nn2)nn1)[*:1]; PYA(3) = 4-pentynoic acid, on D-Lys NZ, clicked (triazole) to the linker azide; X2 = O=C(CCSCCC(=O)[*:1])N1CN(C(=O)CC[*:2])CN(C(=O)CC[*:3])C1; TATA = O=C(CC[*:1])N1CN(C(=O)CC[*:2])CN(C(=O)CC[*:3])C1; γGlu = O=C(O)[C@H](CCC(=O)[*:2])N[*:1]; 1Nal = N[C@@H](Cc1cccc2ccccc12)C(=O)O; d1Nal = N[C@H](Cc1cccc2ccccc12)C(=O)O; Palmitoyl = CCCCCCCCCCCCCCCC(=O)*; Hyp = O=C(O)[C@@H]1C[C@@H](O)CN1; hArg = N=C(N)NCCCC[C@H](N)C(=O)O; tBuAla = CC(C)(C)C[C@H](N)C(=O)O; Aad = N[C@@H](CCCC(=O)O)C(=O)O; Cysteamide = C(CS[*:3])N[*:1]; Cba = N[C@@H](CC1CCC1)C(=O)O; dK(PYA) = not defined here; dNle = CCCC[C@@H](N)C(=O)O; NMeA = CN[C@@H](C)C(=O)O; Nle = CCCC[C@H](N)C(=O)O; Pent4ynoyl = C#CCCC(=O)*; Mpa = O=C(O)CCS

By EC50 is commonly meant the concentration at which the effect is half-maximal.

CD137, sequence (Q07011 24-255): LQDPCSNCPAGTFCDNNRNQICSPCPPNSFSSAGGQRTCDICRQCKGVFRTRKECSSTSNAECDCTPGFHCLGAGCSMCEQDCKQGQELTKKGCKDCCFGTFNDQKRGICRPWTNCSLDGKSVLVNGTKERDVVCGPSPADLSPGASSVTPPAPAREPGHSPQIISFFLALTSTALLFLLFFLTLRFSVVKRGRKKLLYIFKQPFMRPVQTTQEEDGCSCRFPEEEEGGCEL

For “I: Ac-C[tBuAla]PE[dK]PYCFADPY[Nle]CA-NH2 / II: Ac-C[tBuAla]PE[dK]PYCFADPY[Nle]CA-NH2 / III: C[Hyp]LVNPLCL[1Nal]P[dD]WTC-NH2 (linker I:1-I:8-I:15, II:1-II:8-II:15, III:1-III:8-III:15 via TATA; linker I:5-II:5-III:N via X3) [BCY13273]”, the “Emax (fold induction over background)” value came out at 51.27. “I: Ac-A[hArg]DC[Hyp]LVNPLCLHP[dD]W[hArg]CK-NH2 / II: Ac-C[tBuAla]PE[dK]PYCFADPY[Nle]CA-NH2 / III: Ac-C[tBuAla]PE[dK]PYCFADPY[Nle]CA-NH2 (linker I:4-I:11-I:18, II:1-II:8-II:15, III:1-III:8-III:15 via TATA; linker I:19-II:5-III:5 via X1) [BCY12973]”: the fold induction turned out to be 48.6 and the response was half-maximal at 0.16 nM (EC50).

For the substance “I: A[hArg]DC[Hyp]LVNPLCLHP[dD]WTC-NH2 / II: Ac-C[tBuAla]PE[dK]PYCFADPY[Nle]CA-NH2 / III: Ac-C[tBuAla]PE[dK]PYCFADPY[Nle]CA-NH2 (linker I:4-I:11-I:18, II:1-II:8-II:15, III:1-III:8-III:15 via TATA; linker I:N-II:5-III:5 via X1) [BCY13043]”, the fold induction was 52.7 and the EC50 was 0.11 nM.

Consider “I: [NMeA][hArg]DC[Hyp]LVNPLCLEP[dD]WTC-NH2 / II: Ac-C[tBuAla]PE[dK]PYCFADPY[Nle]CA-NH2 / III: Ac-C[tBuAla]PE[dK]PYCFADPY[Nle]CA-NH2 (linker I:4-I:11-I:18, II:1-II:8-II:15, III:1-III:8-III:15 via TATA; linker I:N-II:5-III:5 via X1) [BCY13276]”, for which the fold induction worked out at 50.5 and the EC50 worked out at 0.1 nM. As for “BCY12725: EphA2:CD137 1:2; BCY9594 + 2x BCY12147; linker N-(acid-PEG3)-N-bis(PEG3-azide) (peptide 1 A[hArg]DC[Hyp]LVNPLCLHP[dD]W[hArg]C; peptide 2 Ac-C[tBuAla]PE[dK](PYA(3))PYCFANPY[Nle]C; linker I:4-I:11-I:18, II:1-II:8-II:15 via TATA; not fully specified (N-terminus, bridges); also: chain 2 present twice on linker, EphA2:CD137 1:2)”, the “Fold Improvement over BCY9173, EC50 (nM)” value turned out to be 0.1 fold and the “Fold Improvement over Emax” value is given as 0.7 fold. Turning to “I: A[hArg]DC[Hyp]LVNPLCL[Aad]P[dD]W[hArg]C-NH2 / II: Ac-C[tBuAla]PE[dK]PYCFADPY[Nle]CA-NH2 / III: Ac-C[tBuAla]PE[dK]PYCFADPY[Nle]CA-NH2 (linker I:4-I:11-I:18, II:1-II:8-II:15, III:1-III:8-III:15 via TATA; linker I:N-II:5-III:5 via X1) [BCY13286]”, the fold induction came out at 34.1 and the EC50 is 0.11 nM. On to “I: A[hArg]DC[Hyp]LVNPLCLEP[dD]WTC-NH2 / II: [Mpa][tBuAla]EE[dK]PYCFADPY[Nle]C-NH2 / III: [tBuAla]EE[dK]PYCFADPY[Nle]C-NH2 (linker I:4-I:11-I:18, II:1-II:8-II:15 via TATA; linker I:N-II:5-III:4 via X1; linker III:N-III:7-III:14 via X2) [BCY13140]”, for which the “Emax (fold induction over background)” value came out at 46.70 and the EC50 worked out at 0.12 nM.

With “I: [dA][hArg]DC[Hyp][Cba]VNPLCLEP[dA]WTC[dA]-NH2 / II: Ac-C[tBuAla]PE[dK]PYCFADPY[Nle]CA-NH2 / III: Ac-C[tBuAla]PE[dK]PYCFADPY[Nle]CA-NH2 (linker I:4-I:11-I:18, II:1-II:8-II:15, III:1-III:8-III:15 via TATA; linker I:N-II:5-III:5 via X1) [BCY13277]”, the fold induction is 51.1 and the response was half-maximal at 0.08 nM (EC50). On the same counts, the results for “I: A[hArg]DC[Hyp]LVNPLCLEP[dD]WTC-NH2 / II: Ac-C[tBuAla]PE[dK]PYCFADPY[Nle]CA-NH2 / III: Ac-C[tBuAla]PE[dK]PYCFADPY[Nle]CA-NH2 (linker I:4-I:11-I:18, II:1-II:8-II:15, III:1-III:8-III:15 via TATA; linker I:N-II:5-III:5 via X1) [BCY13044]” are 49.5 and 0.21 nM. Taken in the same sequence, the figures for “I: [dA][dA]DC[Hyp]LVNPLCLEP[dD]WTC-NH2 / II: Ac-C[tBuAla]PE[dK]PYCFADPY[Nle]CA-NH2 / III: Ac-C[tBuAla]PE[dK]PYCFADPY[Nle]CA-NH2 (linker I:4-I:11-I:18, II:1-II:8-II:15, III:1-III:8-III:15 via TATA; linker I:N-II:5-III:5 via X1) [BCY13281]” were 35.6 and 0.17 nM.

As to “BCY13279: EphA2:CD137 1:2; BCY13125 (C-term dLys) + 2x BCY8928; linker N-(acid-PEG3)-N-bis(PEG3-azide) (peptide 1 Ac-C[Hyp]LVNPLCLHP[dD]W[hArg]CL[dH]G[dK]; peptide 2 Ac-C[tBuAla]PE[dK](Pent4ynoyl)PYCFADPY[Nle]CA; linker I:1-I:8-I:15 via TATA; linker II:1-II:8-II:15 via TATA (inferred); not fully specified (bridges); also: linker N-(acid-PEG3)-N-bis(PEG3-azide) on C-terminal dK of chain 1, joins two chain 2 copies (2x BCY8928) via PYA triazoles)”, the “Fold Improvement over BCY9173, EC50 (nM)” value was 4.74 fold and the “Fold Improvement over Emax” value was 2.08 fold. On the same counts, the results for “BCY12732: EphA2:CD137 1:2; BCY9594 + 2x BCY12360; linker N-(acid-PEG3)-N-bis(PEG3-azide) (peptide 1 A[hArg]DC[Hyp]LVNPLCLHP[dD]W[hArg]C; peptide 2 {Palmitoyl-γGlu-γGlu}-C[tBuAla]PE[dK(PYA)]PYCFADPY[Nle]C; linker I:4-I:11-I:18 via TATA (inferred); linker II:1-II:8-II:15 via TATA; not fully specified (N-terminus); reading uncertain; also: chain 2 twice (1:2 complex), linker at chain B 5 to a chain's N-terminus via N-(acid-PEG3)-N-bis(PEG3-azide))” are 0.5 fold and 0.4 fold.

As for “I: A[hArg]DC[Hyp]LVNPLCLHP[dD]W[hArg]C-NH2 / II: [Mpa][tBuAla]EE[dK]PYCFADPY[Nle]C-NH2 / III: [tBuAla]EE[dK]PYCFADPY[Nle]C-NH2 (linker I:4-I:11-I:18, II:1-II:8-II:15 via TATA; linker I:N-II:5-III:4 via X1; linker III:N-III:7-III:14 via X2) [BCY13139]”, the “Emax (fold induction over background)” value is listed as 43.75 and the EC50 worked out at 0.16 nM. For the substance “BCY14334: EphA2:CD137 1:2; BCY14313 + 2x BCY8928; linker N-(acid-PEG3)-N-bis(PEG3-azide) (peptide 1 A[hArg]DC[Hyp]LVNPLCLKP[dD]W[hArg]C; peptide 2 Ac-C[tBuAla]PE[dK](Pent4ynoyl)PYCFADPY[Nle]CA; linker I:4-I:11-I:18, II:1-II:8-II:15 via TATA (inferred); not fully specified (some residues, N-terminus); also: 1:2 complex: chain 1 N-terminus joined to dLys(PYA)5 of two chain 2 copies via N-(acid-PEG3)-N-bis(PEG3-azide) linker)”, the “Fold Improvement over BCY9173, EC50 (nM)” value amounted to 7.21 fold and the “Fold Improvement over Emax” value is listed as 1.62 fold.

For “I: A[hArg]DC[Hyp]LVNPLCLHP[dNle]W[hArg]C-NH2 / II: Ac-C[tBuAla]PE[dK]PYCFADPY[Nle]CA-NH2 / III: Ac-C[tBuAla]PE[dK]PYCFADPY[Nle]CA-NH2 (linker I:4-I:11-I:18, II:1-II:8-II:15, III:1-III:8-III:15 via TATA; linker I:N-II:5-III:5 via X1) [BCY13288]”, the fold induction was 43.3 and a half-maximal effect (EC50) was put at 0.09 nM. On to “BCY12731: EphA2:CD137 1:2; BCY9594 + 2x BCY12354; linker N-(acid-PEG3)-N-bis(PEG3-azide) (peptide 1 A[hArg]DC[Hyp]LVNPLCLHP[dD]W[hArg]C; peptide 2 [Mpa][tBuAla]PE[dK(PYA)]PYCFADPY[Nle][Cysteamide]; linker I:4-I:11-I:18 via TATA (inferred); linker II:1-II:8-II:15 via TATA; not fully specified (N-terminus); reading uncertain; also: chain 2 twice (1:2 complex), linker at chain B 5 to a chain's N-terminus via N-(acid-PEG3)-N-bis(PEG3-azide))”, for which the “Fold Improvement over BCY9173, EC50 (nM)” value turned out to be 0.2 fold and the “Fold Improvement over Emax” value worked out at 1.5 fold.

For “I: A[hArg]DC[Hyp]LVNPLCLHP[d1Nal]W[hArg]C-NH2 / II: Ac-C[tBuAla]PE[dK]PYCFADPY[Nle]CA-NH2 / III: Ac-C[tBuAla]PE[dK]PYCFADPY[Nle]CA-NH2 (linker I:4-I:11-I:18, II:1-II:8-II:15, III:1-III:8-III:15 via TATA; linker I:N-II:5-III:5 via X1) [BCY13270]”, the fold induction amounted to 42.5 and the EC50 is 0.1 nM.

Values taken from patent US20230129258A1, “HETEROTANDEM BICYCLIC PEPTIDE COMPLEXES” (BicycleTx Limited, priority 2019, published 2023).
